Key:
[1] = system: Trypanosoma brucei brucei; experiment: GSK_TCAKS: pIC50 Trypanosoma brucei viability assay using fluorescence intensity. Assay plates (1536-well) were prepared by dispensing 25nL of compound solution per well using an Echo acoustic dispenser (Labcyte).; format: functional, organism-based; conditions: Lister 427, 2 h
Trypanosoma cruzi [2] = experiment: GSK_TCAKS: pIC50 Trypanosoma cruzi viability assay using beta-GAL activity. This assay was run at single shot at 5uM compound concentration per well. The biological reagents consisted of NIH-3T3 host cells and trypomastigotes parasitic cells; both cell types were set to a 3.3 * 10^5 cells/mL dilution in assay DMEM by means of a CASY cell counter device using a 60um capillary. 6 uL of the mixture were dispensed per well (about 1 * 10^3 host-cells and 1 * 10^3 parasites) with a Multidrop Combi dispenser. […] In all wells, the percentage of DMSO never exceeded 0.5%. Plates incubated for four days at 37C, 5% CO2. The substrate used for the assay fluorescence intensity (FLINT) readout was resorufin-beta-D-galactopiranoside (Sigma-Aldrich) at 5uM per well. It was diluted in PBS supplemented with the soft detergent Igepal (Fluka).; format: functional, organism-based, Mus musculus; conditions: Tulahuen, NIH3T3
Leishmania donovani [3] = experiment: (§1) GSK_TCAKS: pIC50 Leishmania donovani Imaging: THP-1 Host Macrophages. Assay plates (384-well) were prepared by adding 250nL of compound to each well. For single shot assay, the final compound concentration was 5 uM. […] Automated image analysis was performed with a script developed on Acapella High Content Imaging and Analysis Software (PerkinElmer). Output: THP-1 cell count were reported for each well.; format: functional, organism-based, Homo sapiens
[4] = system: Trypanosoma brucei brucei; experiment: GSK_TCAKS: pIC50 Trypanosoma brucei viability assay using luminiscence. Assay plates (1536-well) were prepared. T. brucei cultures were harvested and counted in a CASY cell counter. A parasite suspension was prepared at a final concentration of 5 * 10^4 cells/mL in complete HMI9 medium and 6uL was dispensed to all wells containing compounds using a Multidrop Combi dispenser. 6uL of HMI9 media with 0.4% DMSO were dispensed to control columns. Plates were incubated for 24 h at 37C, 5% CO2 then tempered for 10 min at room temperature. ATP content was quantified by adding 4 uL of CellTiter-Glo Reagent (Promega) according to the manufacturer's instructions. Luminescence was measured using a ViewLux.; format: functional, organism-based; conditions: Lister 427, CASY
Leishmania donovani [5] = experiment: GSK_TCAKS: pIC50 Leishmania donovani viability assay using fluorescence intensity. Assay plates (1536-well) were prepared by adding 30nL per well of compound. For single shot assay, the final compound concentration was 5uM. […] Briefly, eGFP LdBOB axenic amastigotes were harvested, fixed and counted in a CASY cell counter (Roche-Applied Science). A final concentration of 1.5 * 10^5 cells per well were prepared in amastigote media containing 500 U/mL penicillin/streptomycin (Invitrogen) and 6uL was dispensed to each experimental well using a Multidrop Combi dispenser (Thermo Scientific). 6uL of assay media was dispensed to control columns used as reference for 100% compound response. Following incubation for 72 h at 37C, 5% CO2, 2 uL of resazurin was added to each well at a final concentration of 0.5 mM in phosphate buffered saline (PBS) with IGEPAL (Sigma-Aldrich), 0.05% (v/v).; format: functional, organism-based
[6] = GSK_TCAKS: pIC50 HepG2 human cell line viability assay using luminiscence. […] Seeding density was checked to ensure that new mono-layers were not more than 50% confluent at the time of harvesting. Cell suspension was added to 500 mL of the same medium at a final density of 1.2 * 10^5 cells/mL. This cell suspension was dispensed (25 uL, 3000 cells per well) into 384-well clear-bottom plates using a Multidrop Combi dispenser. Prior to addition of the cell suspension, the screening compounds (250 nL) were pre-dispensed into the plates with an Echo liquid handler. Plates were incubated for 48 h at 37C, 5% CO2. After incubation, plates equilibrated at room temperature for 30 min before proceeding to develop the luminescent signal. The signal developer, CellTiter-Glo Reagent, was allowed to equilibrate at room temperature for 30 min and added to the plates (25uL per well) using a Multidrop Combi dispenser. Plates were left for 10 min at room temperature for stabilization and then read using a ViewLux.; format: toxicity, cell-based
Trypanosoma cruzi [7] = experiment: (§2) GSK_TCAKS: pIC50 Trypanosoma cruzi Imaging: Infected Cells. […] Cells were then washed once with PBS before infection. T. cruzi trypomastigotes, collected at days 5 to 8 after infection from LLC-MK2 parasite infected cultures, were allowed to swim out for 4h at 37C from a centrifuged pellet (2,500 rpm/10 min/room temperature). Trypomastigotes were then collected and counted in a CASY Cell Counter. Trypomastigotes, in supplemented DMEM, were added to H9c2 cultures in a multiplicity of infection of 1 and incubated for 18 h. Cells were washed once with PBS before incubation of the infected H9c2 monolayer with trypsin (Life-Technologies) to detach cells from the flask. Cells were counted in a CASY Cell Counter using a 150 um capillary and their density set at 5 * 10^4 cells per mL in supplemented assay DMEM. Infected H9c2 were dispensed into 384-well poly-lysine coated assay plates at 50uL per well using a Multidrop Combi dispenser. After seeding them, the plates were incubated at 37C, 5% CO2 for 72h. Cultures were then fixed and stained by addition of 50 uL of a solution containing 8% formaldehyde and 4 uM DRAQ5 DNA dye (BioStatus, UK) per well. […] Five images were collected per well for reliable statistical analysis. Automated image analysis was performed with a script developed on Acapella High Content Imaging and Analysis Software (PerkinElmer). Output: percentage of infected cells per well as a second infection marker.; format: functional, organism-based, Rattus norvegicus; conditions: H9c2, 4 h
[8] = target: Sterol 14-alpha demethylase (Trypanosoma cruzi (strain CL Brener), UniProt Q7Z1V1); experiment: GSK_TCAKS: pIC50 CYP51 from Trypanosoma cruzi.; format: functional
Sequence of Sterol 14-alpha demethylase (Q7Z1V1 whole entry): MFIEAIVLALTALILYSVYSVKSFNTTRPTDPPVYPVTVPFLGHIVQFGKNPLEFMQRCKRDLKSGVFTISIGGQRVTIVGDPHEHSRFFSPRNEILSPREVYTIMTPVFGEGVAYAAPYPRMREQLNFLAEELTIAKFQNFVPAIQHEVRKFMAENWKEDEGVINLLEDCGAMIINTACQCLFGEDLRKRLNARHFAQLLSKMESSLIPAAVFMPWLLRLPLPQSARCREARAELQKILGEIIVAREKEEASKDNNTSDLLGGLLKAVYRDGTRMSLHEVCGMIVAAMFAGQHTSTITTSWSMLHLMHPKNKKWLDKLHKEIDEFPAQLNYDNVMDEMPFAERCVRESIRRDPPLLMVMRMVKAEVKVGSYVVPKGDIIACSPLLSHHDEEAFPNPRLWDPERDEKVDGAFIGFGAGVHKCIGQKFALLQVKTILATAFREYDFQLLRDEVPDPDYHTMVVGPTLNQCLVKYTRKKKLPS

Trypanosoma cruzi [9] = experiment: GSK_TCAKS: pIC50 Trypanosoma cruzi Imaging: Amastigotes/Cell. […] Cells were then washed once with PBS before infection. T. cruzi trypomastigotes, collected at days 5 to 8 after infection from LLC-MK2 parasite infected cultures, were allowed to swim out for 4h at 37C from a centrifuged pellet (2,500 rpm/10 min/room temperature). Trypomastigotes were then collected and counted in a CASY Cell Counter. Trypomastigotes, in supplemented DMEM, were added to H9c2 cultures in a multiplicity of infection of 1 and incubated for 18 h. Cells were washed once with PBS before incubation of the infected H9c2 monolayer with trypsin (Life-Technologies) to detach cells from the flask. Cells were counted in a CASY Cell Counter using a 150 um capillary and their density set at 5 * 10^4 cells per mL in supplemented assay DMEM. Infected H9c2 were dispensed into 384-well poly-lysine coated assay plates at 50uL per well using a Multidrop Combi dispenser. After seeding them, the plates were incubated at 37C, 5% CO2 for 72h. Cultures were then fixed and stained by addition of 50 uL of a solution containing 8% formaldehyde and 4 uM DRAQ5 DNA dye (BioStatus, UK) per well. […] Five images were collected per well for reliable statistical analysis. Automated image analysis was performed with a script developed on Acapella High Content Imaging and Analysis Software (PerkinElmer). Output: number of amastigotes per cell as infection level measurement.; format: functional, organism-based, Rattus norvegicus; conditions: H9c2, 4 h
Trypanosoma cruzi [10] = experiment: as §2, with “H2C9” for “Trypanosoma cruzi”, “H9c2 Host Cardiomyocytes.” for “Infected Cells.”, “Number” for “percentage”, “H9c2 Host Cardiomyocytes nuclei to determine drug-related cytotoxicity.” for “infected cells per well as a second infection marker.”; format: functional, organism-based, Rattus norvegicus; conditions: H9c2, 4 h
Leishmania donovani [11] = experiment: as §1, with “Infected” for “THP-1 Host”, “Percent of infected macrophage cells” for “THP-1 cell count”; format: functional, organism-based, Homo sapiens; conditions: THP-1
Leishmania donovani [12] = experiment: as §1, with “Amastigotes/Macrophages.” for “THP-1 Host Macrophages.”, “Average number of amastigotes per macrophage” for “THP-1”, “cell” for “cell count”; format: functional, organism-based, Homo sapiens; conditions: THP-1

SMILES	IC50 [1] [µM]	IC50 (Trypanosoma cruzi [2]) [µM]	IC50 (Leishmania donovani [3]) [µM]	IC50 [4] [µM]	IC50 (Leishmania donovani [5]) [µM]	IC50 at 48 h [6] [µM]	IC50 (Trypanosoma cruzi [7]) [µM]	IC50 [8] [µM]	IC50 (Trypanosoma cruzi [9]) [µM]	IC50 (Trypanosoma cruzi [10]) [µM]	IC50 (Leishmania donovani [11]) [µM]	IC50 (Leishmania donovani [12]) [µM]
NCc1ccc2c(Cl)cc(Cl)c(O)c2n1	0.398	2.51	20	0.2	6.31	25.1	2	39.8	1.26	6.31	2	2
Cc1ccc(NC(=O)c2ccc([N+](=O)[O-])s2)cc1S(=O)(=O)N1CCOCC1	0.251	0.2	39.8	0.794	2	15.8	0.398	20	0.251	5.01	3.16	2
Cc1nnc(-c2nc(NCc3ccc(Cl)cc3)c3cccnc3c2O)[nH]1	0.631	0.631	6.31	0.794	2	15.8	0.794	15.8	1.26	25.1	0.501	0.501
O=C(Cc1ccc2c(c1)CCC2)Nc1nnc(-c2ccccn2)[nH]1	20	10	> 50.1	> 39.8	7.94	50.1	10	2.51	10	> 50.1	6.31	6.31
CCNc1cc(-c2ccccn2)nc(Nc2ccc(OC)cc2)n1	12.6	0.708	25.1	10	1.58	39.8	3.16	39.8	2.51	0.316	0.501	0.398
O=C(CN(Cc1ccccn1)Cc1ccccn1)NC1Cc2ccccc2C1	20	5.01	> 79.4	12.6	12.6	> 158	12.6	79.4	6.31	> 79.4	5.01	5.01
OC[C@@H](Nc1nccc(-c2c(-c3ccc(F)cc3)ncn2C2CCNCC2)n1)c1ccccc1	0.398	31.6	31.6	0.631	> 50.1	100	12.6	25.1	12.6	2	31.6	31.6
NC(=O)c1cc(F)ccc1Nc1nc(N[C@H]2CC[C@H](O)CC2)ncc1Cl	0.158	3.98	0.631	0.631	3.16	> 100	5.01	31.6	1.58	1.58	1.26	0.794

— ChEMBL document CHEMBL3430912, “GSK Tres Cantos Anti-Kinetoplastid Screening (TCAKS) Data”
